Test results: patent publication US8642067B2, “Methods and compositions for intraocular administration to treat ocular conditions” (Allergen, Inc., priority 2007, dated 2014)

Legend:
[1] = in vivo; conditions: female, albino, rabbit
Description: Vitreous humor samples (n=4 eyes per timepoint) were collected at 0.5, 1, 2, 4, 8, and 12 hr postdose. The TKI concentration in the vitreous humor was determined using a liquid chromatography tandem mass spectrometry method (LC-MS/MS).

[2] = system: macula edema patient; experiment: Treatment of macular edema with intravitreal TKI composition (ETDRS visual acuity chart); assay type: in vivo, human; conditions: twelve months after first injection; 1 mg intravitreal every 4 months; high viscosity hyaluronate solution such as Example 13 formulation
Description: An obese patient with symptoms of diabetes presents with vision loss due to macula edema with central retinal vein occlusion and/or branch retinal vein occlusion. They receive intravitreal injection of 1 mg of a high viscosity TKI (polymeric hyaluronate based) solution containing COMPOUND F, such as the Example 13 formulation. Equivalent injections are made every 4 months.

| AUC(0-t) [1] [µg·h/mL] | C0 [1] [µg/mL] | Vd [1] [L] | clearance [1] [mL/min] | half-life [1] [h] | Structure (SMILES) | improved best corrected visual acuity from baseline (ETDRS chart) [2] |
| --- | --- | --- | --- | --- | --- | --- |
| 0.778 | 0.566 | 0.000705 | 0.00433 | 2.59 | Nc1ccc2c(c1)/C(=C1\C(=O)Nc3ccc(Cl)cc31)OC2 [COMPOUND A, 3-(6-Amino-3H-isobenzofuran-1-ylidene)-5-chloro-1,3-dihydro-indol-2-one] |  |
|  |  |  |  |  | Cc1cc(C(=O)Nc2cccc(C#Cc3cncc(C(=O)N=S(C)(=O)c4ccc(CCC(=O)O)cc4)c3)c2)n(C)n1 (stereo not drawn) [COMPOUND F] | fifteen |
